Reference: patent US20110207775A1, “AGENT THAT MODULATES PHYSIOLOGICAL CONDITION OF PESTS, INVOLVED IN INSECT VESICLE-FUSING ATPASE ACTIVITY” (SUMITOMO CHEMICAL COMPANY, LIMITED, priority 2006, published 2011)

How the values were obtained:
[1] = target: cotton aphid vesicle-fusing ATPase (Aphis gossypii, UniProt A0A9P0IYS6); experiment: Inhibition of cotton aphid vesicle-fusing ATPase activity (Kinase-Glo luminescent assay of ATP not hydrolyzed); assay type: biochemical; details: for IC50: 8 concentrations from 100 μM to 0.03 μM, calculated with XLfit, read-out: Activity of inhibiting vesicle-fusing ATPase activity (IC50)
Sequence of cotton aphid vesicle-fusing ATPase (A0A9P0IYS6 1-478): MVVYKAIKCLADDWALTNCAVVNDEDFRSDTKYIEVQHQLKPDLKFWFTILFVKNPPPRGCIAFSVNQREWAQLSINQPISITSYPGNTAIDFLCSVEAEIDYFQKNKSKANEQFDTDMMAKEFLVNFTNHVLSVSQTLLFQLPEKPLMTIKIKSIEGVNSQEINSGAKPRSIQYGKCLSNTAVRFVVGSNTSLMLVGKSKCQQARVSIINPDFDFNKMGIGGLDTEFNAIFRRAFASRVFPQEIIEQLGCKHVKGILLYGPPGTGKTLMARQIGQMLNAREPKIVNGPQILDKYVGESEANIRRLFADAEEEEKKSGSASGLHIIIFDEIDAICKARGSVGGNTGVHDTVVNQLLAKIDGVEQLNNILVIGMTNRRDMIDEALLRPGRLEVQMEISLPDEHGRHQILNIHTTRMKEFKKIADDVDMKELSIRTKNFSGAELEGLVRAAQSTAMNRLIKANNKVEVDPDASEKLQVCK
Procedure: Selection of a compound which modulates a vesicle-fusing ATPase activity was performed in a system for measuring and evaluating the vesicle-fusing ATPase activity, the activity being modulated by adding a test compound to an in vitro reaction system using the cotton aphid vesicle-fusing ATPase prepared in Example 7.
As for a measurement of the cotton aphid vesicle-fusing ATPase activity, after the enzymatic reaction of vesicle-fusing ATPase using ATP as a substrate, an amount of ATP that was not hydrolyzed was measured as the amount of luminescence of luciferase using Kinase-Glo™ Luminescent Kinase Assay (manufactured by Promega), according to a method described in the instruction attached to the kit. The vesicle-fusing ATPase activity was calculated from the amount of luminescence.
For measuring the activity, the activity of the aphid vesicle-fusing ATPase was measured when a test compound dissolved in DMSO was contained to a final concentration of 10 μM. In addition, the activity of the aphid vesicle-fusing ATPase was measured when DMSO was contained in place of a test compound. Then, a ratio (%) of a measured value of the activity of the aphid vesicle-fusing ATPase when a test compound dissolved in DMSO was contained, relative to a measured value of the activity of aphid vesicle-fusing ATPase when DMSO was contained in place of the test compound was calculated, and a value obtained by subtracting the calculated value from 100% was adopted as an inhibition degree (%). The results in each test compound are shown in Table 4 in Example 9 together with results of Example 9.
The activity of aphid vesicle-fusing ATPase was measured when a test compound dissolved in DMSO was contained to a final concentration of each concentration of 100 μM, 30 μM, 10 μM, 3 μM, 1 μM, 0.3 μM, 0.1 μM or 0.03 μM. IC50 (μM) was calculated from the result of each concentration at each test compound using a concentration-dependent test analyzing software XL fit (manufactured by idbs). The results are shown in Table 5 in Example 10 together with results of Example 9.

Aphis gossypii = experiment: Pesticidal activity test, cotton aphid reared on artificial feed containing test compound; assay type: in vivo; details: same manner as Example 9: 50 ppm in artificial feed, 6 days, controlling value of 30% or more = pesticidal activity
vesicle-fusing ATPase = details: ATPase inhibitor; Steel et al. 1999, Morgan et al. 1994; cited from earlier work
[2] = test compound in DMSO at final concentration 10 μM, relative to DMSO control

Row | Molecule | IC50 [1] [µM] | Activity of inhibiting vesicle-fusing ATPase activity (inhibition degree (%) at 10 μm addition) [1, 2] [%] | Determination result of pesticidal activity (Result of Example 10) (Aphis gossypii) | inhibition at 10 µM ([1]; test compound in DMSO at final concentration 10 μM, relative to DMSO control, read-out: Activity of inhibiting vesicle-fusing ATPase activity (inhibition degree (%) at 10 μm addition)) [%] | Activity against vesicle-fusing ATPase (vesicle-fusing ATPase)
1 | Clc1ccc(C(c2ccc(Cl)cc2)n2cc[n+](CC(OCc3ccc(Cl)cc3Cl)c3ccc(Cl)cc3Cl)c2)cc1 (centres unmarked) [Calmidazolium Chloride] | 4.7 | 80 | – | – | –
2 | Hypocrellin B | > 100 | – | Absence of | – | –
3 | Cc1ccc(C(=O)Nc2ccc(S(=O)(=O)O)c3cc(S(=O)(=O)O)cc(S(=O)(=O)O)c23)cc1NC(=O)c1cccc(NC(=O)Nc2cccc(C(=O)Nc3cc(C(=O)Nc4ccc(S(=O)(=O)O)c5cc(S(=O)(=O)O)cc(S(=O)(=O)O)c45)ccc3C)c2)c1 [Suramin] | 1.9 | – | – | 100 | –
4 | CCCCCCCCCCCCC(=O)N1CCCCC1CNC(=O)[C@@H](N)CCCCN.Cl.Cl (some centres unmarked) [NPC15437 dihydrochloride] | 19 | 35 | – | – | –
5 | Cc1ccc2c(c1)C(=O)C1(O)CCN(c3ccccc3)C1=N2 (racemic) [(±)-Blebbistatin] | > 100 | – | Absence of | – | –
6 | CCN1C(=O)C=CC1=O [N-ethylmaleimide] | – | – | – | – | show also activity against vesicle-fusing ATPase
